Data on 21 compounds can be found in US12103919B2, “3-(5-oxy)-1-oxoisoindolin-2-yl)piperidine-2,6-dione derivatives and uses thereof” (NOVARTIS AG, priority 2021, dated 2024).

Where two headings read alike, the source gives them in different places. Some results are limits rather than exact numbers.

The experiment deals with T1, WIZ (Homo sapiens, UniProt O95785+Q96SW2).
T1 construct: expressed in transfected cells
The experiment in a line: Quantification of WIZ protein levels in HiBit tag fusion protein assay (293T cells). It is filed as cell-based. Also noted: Dmax: dose or concentration left out as unconfirmed. As for the experimental part:
The HiBit system from Promega was used to develop high-throughput and quantitative assays to measure changes in WIZ protein levels in response to compounds. The HiBit tag was derived from a split Nanoluciferase and has the following protein sequence: […] (SEQ ID NO: 1). The complementary fragment of Nanoluciferase (known as LgBit, from Promega), was added to the HiBit tag to form an active Nanoluciferase enzyme whose activity can be precisely measured. In this way, the levels of a fusion protein with the HiBit tag can be quantified in cell lysates.
Lentiviral vectors, based on the Invitrogen™ pLenti6.2/V5 DEST backbone were constructed that places the HiBit tag upstream of WIZ and expressed the fusion protein from an HSVTK promotor.
To ensure moderate and consistent expression of the HiBit-WIZ fusion protein across all cells in the population, stable cell lines were constructed from cells harboring a single copy of the construct. Lentivirus packaged with the constructs were made using the ViraPowerTMkit from Invitrogen™. 293T cells from ATCC (Catalog number: CRL-3216), were infected with the virus at low multiplicity of infection and selected by 5 μg/mL blasticidin in culture media for 2 weeks.
The levels of HiBit-WIZ tagged fusion proteins in compound-treated cell lines were measured as follows:
On day 1, cells were diluted to 1.0×10^6 cells/ml in normal growth medium. 20 μL of cell suspension were plated in each well of a solid white 384-well plate. Plates were incubated overnight in a 37° C. and 5% CO2 humidified tissue culture incubator.
On day 2, serial dilutions of compounds were made in 384-well plates. Compound plates were set up with DMSO in columns 1, 2, 23, 24, and 10-point compound dilution series in column 3-12 and column 13-22. 10 mM stock solution of compound were placed into column 3 or 13 and a 1:5 serial dilution was carried out until there was a 10-point dilution series per compound. 50 nL of diluted compounds were transferred into the plated cells by Echo® (Labcyte) acoustic transfer. The highest concentration of compound was 25 μM. Plates were incubated overnight (about 18 hours) in a 37° C. and 5% CO2 humidified tissue culture incubator.
On day 3, plates were removed from the incubator and allowed to equilibrate at room temperature for 60 minutes. HiBit substrate (Nano-Glo® HiBit Lytic Detection System, Promega Catalogue number: N3050) was added as described by the manufacturers protocols. Plates were incubated at room temperature for 30 minutes and luminescence was read using an EnVision® reader (PerkinElmer®). Data was analyzed and visualized using the Spotfire® software package.
WIZ Amax reflects the DMSO-normalized, curve-fitted percentage of WIZ-HiBit remaining at 25 uM. It was calculated by normalizing DMSO controls to 100%, parametric curve fitting of the dose response data (10-point, 5-fold), followed by calculation of response at 25 uM using the fitted equation.
In general terms: With HiBiT, luminescence reflects the tagged protein that the partner subunit can reach.

Where [1] appears, read: HEK-293T, read-out: % degradation of WIZ (100 − Amax).
Setting [2] is: read-out: WIZ AC50; WIZ HiBit assay in 293T cells, about 18 hours, 10-point 5-fold dilution, top 25 μM.
Setting [3] is: WIZ HiBit assay in 293T cells, about 18 hours, 10-point 5-fold dilution, top 25 μM; read-out: WIZ AC50.
The mark [4] stands for this setting: HEK-293T; DMSO-normalized, curve-fitted percentage of WIZ-HiBit remaining at 25 uM; read-out: WIZ Amax.
The mark [5] stands for this setting: HEK-293T; at 25 uM, 100 − Amax; read-out: % degradation of WIZ (100 − Amax).

T1 sequence (O95785 whole entry): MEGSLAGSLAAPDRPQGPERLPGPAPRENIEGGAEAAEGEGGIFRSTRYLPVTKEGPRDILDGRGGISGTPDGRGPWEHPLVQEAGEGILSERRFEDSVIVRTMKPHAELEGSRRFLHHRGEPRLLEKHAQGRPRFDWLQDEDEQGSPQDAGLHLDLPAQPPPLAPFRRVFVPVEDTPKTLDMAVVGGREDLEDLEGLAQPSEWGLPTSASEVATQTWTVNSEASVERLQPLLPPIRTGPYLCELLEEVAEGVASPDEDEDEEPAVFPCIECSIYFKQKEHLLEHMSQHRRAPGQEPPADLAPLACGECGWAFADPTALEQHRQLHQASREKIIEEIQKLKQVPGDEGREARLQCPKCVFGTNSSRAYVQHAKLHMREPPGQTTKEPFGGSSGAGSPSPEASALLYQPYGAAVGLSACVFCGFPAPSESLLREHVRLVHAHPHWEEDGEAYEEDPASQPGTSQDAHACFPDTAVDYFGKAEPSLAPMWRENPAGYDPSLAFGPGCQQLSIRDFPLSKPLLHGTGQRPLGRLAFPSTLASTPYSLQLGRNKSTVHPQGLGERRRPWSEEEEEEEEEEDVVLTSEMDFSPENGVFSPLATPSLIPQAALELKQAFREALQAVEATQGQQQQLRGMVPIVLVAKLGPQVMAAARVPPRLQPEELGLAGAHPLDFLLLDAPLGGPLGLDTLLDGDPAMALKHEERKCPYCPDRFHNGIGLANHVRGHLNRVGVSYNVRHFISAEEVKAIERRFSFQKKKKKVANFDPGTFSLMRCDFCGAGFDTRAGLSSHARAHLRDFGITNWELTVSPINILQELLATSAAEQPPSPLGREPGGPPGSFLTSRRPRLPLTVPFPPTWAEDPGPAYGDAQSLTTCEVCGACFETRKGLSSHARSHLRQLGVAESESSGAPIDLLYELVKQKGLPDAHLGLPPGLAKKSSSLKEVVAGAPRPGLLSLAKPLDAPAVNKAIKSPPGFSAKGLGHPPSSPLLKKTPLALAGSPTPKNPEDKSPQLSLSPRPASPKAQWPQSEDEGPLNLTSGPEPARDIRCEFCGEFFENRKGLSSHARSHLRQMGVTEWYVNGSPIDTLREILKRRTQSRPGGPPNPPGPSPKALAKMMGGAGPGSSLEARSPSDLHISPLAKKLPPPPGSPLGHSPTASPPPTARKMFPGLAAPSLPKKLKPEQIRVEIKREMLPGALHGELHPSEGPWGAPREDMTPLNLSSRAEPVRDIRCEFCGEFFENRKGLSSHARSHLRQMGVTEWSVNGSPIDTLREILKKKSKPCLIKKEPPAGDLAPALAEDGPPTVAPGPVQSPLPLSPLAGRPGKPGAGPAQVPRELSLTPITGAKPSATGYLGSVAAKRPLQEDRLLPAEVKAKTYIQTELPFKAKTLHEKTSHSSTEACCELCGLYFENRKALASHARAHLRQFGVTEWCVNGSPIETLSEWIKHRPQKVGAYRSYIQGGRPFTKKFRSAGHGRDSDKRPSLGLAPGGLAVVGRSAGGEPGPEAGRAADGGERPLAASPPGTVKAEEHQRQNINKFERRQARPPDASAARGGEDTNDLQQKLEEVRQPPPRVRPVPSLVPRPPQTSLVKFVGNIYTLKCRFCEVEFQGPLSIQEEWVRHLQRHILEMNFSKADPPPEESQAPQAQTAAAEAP
T1 sequence (Q96SW2 whole entry): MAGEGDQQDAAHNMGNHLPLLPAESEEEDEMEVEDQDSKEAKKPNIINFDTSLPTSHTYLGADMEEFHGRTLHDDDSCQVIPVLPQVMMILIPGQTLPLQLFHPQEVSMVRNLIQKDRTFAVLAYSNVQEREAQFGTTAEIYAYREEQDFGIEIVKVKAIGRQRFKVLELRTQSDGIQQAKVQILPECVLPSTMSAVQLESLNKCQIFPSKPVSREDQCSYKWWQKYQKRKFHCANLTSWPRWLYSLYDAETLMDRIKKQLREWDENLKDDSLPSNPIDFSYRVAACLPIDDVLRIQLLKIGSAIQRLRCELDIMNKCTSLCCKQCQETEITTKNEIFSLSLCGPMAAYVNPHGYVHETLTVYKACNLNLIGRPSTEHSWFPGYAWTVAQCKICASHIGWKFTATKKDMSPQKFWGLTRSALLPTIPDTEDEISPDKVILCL
T1 sequence (Q16531 whole entry partner): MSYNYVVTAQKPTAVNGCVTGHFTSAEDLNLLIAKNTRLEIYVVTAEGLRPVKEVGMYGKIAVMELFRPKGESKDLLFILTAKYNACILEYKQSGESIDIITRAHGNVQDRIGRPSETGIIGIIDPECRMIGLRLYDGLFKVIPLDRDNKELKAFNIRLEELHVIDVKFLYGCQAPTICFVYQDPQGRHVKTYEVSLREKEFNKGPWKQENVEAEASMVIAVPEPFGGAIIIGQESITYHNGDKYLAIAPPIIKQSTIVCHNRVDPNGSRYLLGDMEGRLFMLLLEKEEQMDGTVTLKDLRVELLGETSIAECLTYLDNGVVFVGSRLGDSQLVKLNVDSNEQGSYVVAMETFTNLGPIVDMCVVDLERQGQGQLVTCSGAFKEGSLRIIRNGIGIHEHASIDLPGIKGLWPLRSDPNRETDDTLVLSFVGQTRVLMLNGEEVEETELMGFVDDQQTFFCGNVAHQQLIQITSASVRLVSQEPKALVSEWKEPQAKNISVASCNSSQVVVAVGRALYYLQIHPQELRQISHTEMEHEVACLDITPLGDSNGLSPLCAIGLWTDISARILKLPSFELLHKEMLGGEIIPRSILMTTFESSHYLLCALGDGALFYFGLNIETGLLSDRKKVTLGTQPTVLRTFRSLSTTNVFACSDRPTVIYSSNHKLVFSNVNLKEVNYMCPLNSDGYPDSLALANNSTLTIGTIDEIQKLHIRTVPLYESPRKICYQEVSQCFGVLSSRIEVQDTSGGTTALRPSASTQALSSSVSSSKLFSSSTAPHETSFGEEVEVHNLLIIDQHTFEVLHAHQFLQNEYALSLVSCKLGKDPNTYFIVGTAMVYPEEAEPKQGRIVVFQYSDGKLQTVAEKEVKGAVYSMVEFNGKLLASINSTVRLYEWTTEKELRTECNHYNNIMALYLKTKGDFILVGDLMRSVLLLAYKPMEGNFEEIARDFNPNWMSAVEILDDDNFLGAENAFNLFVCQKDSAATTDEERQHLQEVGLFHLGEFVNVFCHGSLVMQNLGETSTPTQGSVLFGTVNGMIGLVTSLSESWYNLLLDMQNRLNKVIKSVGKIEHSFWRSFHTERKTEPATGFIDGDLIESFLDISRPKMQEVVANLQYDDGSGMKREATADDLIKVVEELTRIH

`CCn1cc(CN2CCC[C@@H](Oc3ccc4c(c3)CN(C3CCC(=O)NC3=O)C4=O)C2)cn1` (stereo partly drawn) [Example 14, 3-(5-(((R)-1-((1-ethyl-1H-pyrazol-4-yl)methyl)piperidin-3-yl)oxy)-1-oxoisoindolin-2-yl)piperidine-2,6-dione]: the Dmax under setting [1] worked out at 59.3%. Moreover, the remaining activity at 25 µM (HEK-293T, read-out: WIZ Amax) turned out to be 40.7%. The DC50 under setting [2] was 57 nM.

Regarding `CCN1CCC2(CC2)[C@@H](Oc2ccc3c(c2)CN(C2CCC(=O)NC2=O)C3=O)C1` (stereo partly drawn) [Example 15, 3-(5-(((R)-6-ethyl-6-azaspiro[2.5]octan-4-yl)oxy)-1-oxoisoindolin-2-yl)piperidine-2,6-dione], under setting [1], the Dmax was 80%. Further, for the setting “HEK-293T, read-out: WIZ Amax”, the remaining activity at 25 µM worked out at 20%. The DC50 under setting [3] was found to be 8.4 nM.

On to `CC(C)CN1CCC2(CC2)[C@@H](Oc2ccc3c(c2)CN(C2CCC(=O)NC2=O)C3=O)C1` (stereo partly drawn) [Example 16, 3-(5-(((R)-6-isobutyl-6-azaspiro[2.5]octan-4-yl)oxy)-1-oxoisoindolin-2-yl)piperidine-2,6-dione], for which, under setting [4], the remaining activity at 25 µM is 40.9%. For the same compound, the Dmax at 25 µM under setting [5] was 59.1%. Under setting [3], the DC50 is 2.5 nM.

As to `CC[C@H](C)N1CCC2(CC2)[C@@H](Oc2ccc3c(c2)CN(C2CCC(=O)NC2=O)C3=O)C1` (stereo partly drawn) [Example 17, 3-(5-(((R)-6-((S)-sec-butyl)-6-azaspiro[2.5]octan-4-yl)oxy)-1-oxoisoindolin-2-yl)piperidine-2,6-dione], the remaining activity at 25 µM under setting [4] came out at 27.8%. The Dmax at 25 µM under setting [5] came to 72.2%. In addition, the DC50 under setting [3] worked out at 14 nM.

As for `CCN1C[C@H](Oc2ccc3c(c2)CN(C2CCC(=O)NC2=O)C3=O)CC[C@H]1C` (stereo partly drawn) [Example 23, 3-(5-(((3R,6R)-1-ethyl-6-methylpiperidin-3-yl)oxy)-1-oxoisoindolin-2-yl)piperidine-2,6-dione], the Dmax under setting [1] was 57.7%. In addition, where the note is “HEK-293T, read-out: WIZ Amax”, the remaining activity at 25 µM worked out at 42.3%. The DC50 under setting [2] was found to be 30 nM.

On to `CC#CCN1CCC[C@@H](Oc2ccc3c(c2)CN(C2CCC(=O)NC2=O)C3=O)C1` (stereo partly drawn) [Example 24, 3-(5-(((R)-1-(but-2-yn-1-yl)piperidin-3-yl)oxy)-1-oxoisoindolin-2-yl)piperidine-2,6-dione], for which the remaining activity at 25 µM under setting [4] was determined as 47.3%. Besides, under setting [5], the Dmax at 25 µM was 52.7%. Besides, the DC50 under setting [3] came to 10 nM.

Turning to `O=C1CCC(N2Cc3cc(O[C@@H]4CCCN(CC#CC5CC5)C4)ccc3C2=O)C(=O)N1` (stereo partly drawn) [Example 25, 3-(5-(((R)-1-(3-cyclopropylprop-2-yn-1-yl)piperidin-3-yl)oxy)-1-oxoisoindolin-2-yl)piperidine-2,6-dione], the remaining activity at 25 µM under setting [4] stood at 50.2%. Also, the Dmax at 25 µM under setting [5] turned out to be 49.8%. For the same compound, under setting [3], the DC50 was found to be 7.5 nM.

For the compound `CCO[C@H]1C[C@@H](N2CCC[C@@H](Oc3ccc4c(c3)CN(C3CCC(=O)NC3=O)C4=O)C2)C1` (stereo partly drawn) [Example 26, 3-(5-(((R)-1-((1s,3S)-3-ethoxycyclobutyl)piperidin-3-yl)oxy)-1-oxoisoindolin-2-yl)piperidine-2,6-dione], the remaining activity at 25 µM under setting [4] turned out to be 58.9%. The Dmax at 25 µM under setting [5] amounted to 41.1%. Also, the DC50 under setting [3] is 21 nM.

Turning to `CO[C@H]1C[C@H](CN2CCC[C@@H](Oc3ccc4c(c3)CN(C3CCC(=O)NC3=O)C4=O)C2)C1` (stereo partly drawn) [Example 27, 3-(5-(((R)-1-(((1r,3R)-3-methoxycyclobutyl)methyl)piperidin-3-yl)oxy)-1-oxoisoindolin-2-yl)piperidine-2,6-dione], the remaining activity at 25 µM under setting [4] turned out to be 60.3%. Moreover, the Dmax at 25 µM under setting [5] amounted to 39.7%. Moreover, under setting [3], the DC50 turned out to be 130 nM.

In the case of `O=C1CCC(N2Cc3cc(O[C@@H]4CCCN(C5CC6(CCOCC6)C5)C4)ccc3C2=O)C(=O)N1` (stereo partly drawn) [Example 28, 3-(5-(((R)-1-(7-oxaspiro[3.5]nonan-2-yl)piperidin-3-yl)oxy)-1-oxoisoindolin-2-yl)piperidine-2,6-dione], the remaining activity at 25 µM under setting [4] is 67.1%. In addition, the Dmax at 25 µM under setting [5] came to 32.9%. Under setting [3], the DC50 was found to be 84 nM.

With `CO[C@H]1CC[C@H](CN2CCC[C@@H](Oc3ccc4c(c3)CN(C3CCC(=O)NC3=O)C4=O)C2)CC1` (stereo partly drawn) [Example 30, 3-(5-(((R)-1-(((1r,4R)-4-methoxycyclohexyl)methyl)piperidin-3-yl)oxy)-1-oxoisoindolin-2-yl)piperidine-2,6-dione], the remaining activity at 25 µM under setting [4] was 70.8%. Moreover, the Dmax at 25 µM under setting [5] turned out to be 29.2%. Further, the DC50 under setting [3] turned out to be 79 nM.

As to `C=CCCN1CCC[C@@H](Oc2ccc3c(c2)CN(C2CCC(=O)NC2=O)C3=O)C1` (stereo partly drawn) [Example 31, 3-(5-(((R)-1-(but-3-en-1-yl)piperidin-3-yl)oxy)-1-oxoisoindolin-2-yl)piperidine-2,6-dione], the remaining activity at 25 µM under setting [4] was 31.4%. The Dmax at 25 µM under setting [5] turned out to be 68.6%. The DC50 under setting [3] was determined as 8.9 nM.

Consider `CC[C@@H](C)N1CCC[C@@H](Oc2ccc3c(c2)CN(C2CCC(=O)NC2=O)C3=O)C1` (stereo partly drawn) [Example 32, 3-(5-(((R)-1-((R)-sec-butyl)piperidin-3-yl)oxy)-1-oxoisoindolin-2-yl)piperidine-2,6-dione], for which, under setting [4], the remaining activity at 25 µM is 19.2%. Moreover, under setting [5], the Dmax at 25 µM amounted to 80.8%. Also, the DC50 under setting [3] was 1.7 nM.

As to `CC[C@H](C)N1CCC[C@@H](Oc2ccc3c(c2)CN(C2CCC(=O)NC2=O)C3=O)C1` (stereo partly drawn) [Example 33, 3-(5-(((R)-1-((S)-sec-butyl)piperidin-3-yl)oxy)-1-oxoisoindolin-2-yl)piperidine-2,6-dione], the remaining activity at 25 µM under setting [4] came out at 18.6%. Under setting [5], the Dmax at 25 µM came out at 81.4%. Also, the DC50 under setting [3] turned out to be 1.5 nM.

On to `CCN1CCCC[C@@H](Oc2ccc3c(c2)CN(C2CCC(=O)NC2=O)C3=O)C1` (stereo partly drawn) [Example 36, 3-(5-(((R)-1-ethylazepan-3-yl)oxy)-1-oxoisoindolin-2-yl)piperidine-2,6-dione], for which the Dmax under setting [1] is 67.5%. In addition, under “HEK-293T, read-out: WIZ Amax”, the remaining activity at 25 µM is 32.5%. For the same compound, the DC50 under setting [3] came out at 57 nM.

`CCN1CCCC[C@H](Oc2ccc3c(c2)CN(C2CCC(=O)NC2=O)C3=O)C1` (stereo partly drawn) [Example 37, 3-(5-(((S)-1-ethylazepan-3-yl)oxy)-1-oxoisoindolin-2-yl)piperidine-2,6-dione]: the remaining activity at 25 µM (HEK-293T, read-out: WIZ Amax) was 103%. Under setting [3], the DC50 is more than 25000 nM.

`CC(C)CN1CCCC[C@@H](Oc2ccc3c(c2)CN(C2CCC(=O)NC2=O)C3=O)C1` (stereo partly drawn) [Example 38, 3-(5-(((R)-1-isobutylazepan-3-yl)oxy)-1-oxoisoindolin-2-yl)piperidine-2,6-dione]: the remaining activity at 25 µM under setting [4] is 35.6%. In addition, the Dmax at 25 µM under setting [5] amounted to 64.3%. Moreover, the DC50 under setting [3] was found to be 25 nM.

Consider `CCN1CC[C@@H](Oc2ccc3c(c2)CN(C2CCC(=O)NC2=O)C3=O)C1` (stereo partly drawn) [Example 39, 3-(5-(((R)-1-ethylpyrrolidin-3-yl)oxy)-1-oxoisoindolin-2-yl)piperidine-2,6-dione], for which the Dmax under setting [1] stood at 52.1%. In addition, the remaining activity at 25 µM (HEK-293T, read-out: WIZ Amax) stood at 47.9%. Besides, the DC50 under setting [3] came to 210 nM.

In the case of `CCN1CC[C@H](Oc2ccc3c(c2)CN(C2CCC(=O)NC2=O)C3=O)C1` (stereo partly drawn) [Example 40, 3-(5-(((S)-1-ethylpyrrolidin-3-yl)oxy)-1-oxoisoindolin-2-yl)piperidine-2,6-dione], the remaining activity at 25 µM under setting [4] was found to be 73.5%. For the same compound, the Dmax at 25 µM under setting [5] came out at 26.5%. In addition, the DC50 under setting [3] was found to be 770 nM.

Consider `O=C1CCC(N2Cc3cc(O[C@@H]4CCCN(C5CCCC5)C4)ccc3C2=O)C(=O)N1` (stereo partly drawn) [Example 42, 3-(5-(((R)-1-cyclopentylpiperidin-3-yl)oxy)-1-oxoisoindolin-2-yl)piperidine-2,6-dione], for which the remaining activity at 25 µM under setting [4] stood at 22.9%. The Dmax at 25 µM under setting [5] was found to be 77.1%. For the same compound, the DC50 under setting [3] is 3.6 nM.

As for `O=C1CCC(N2Cc3cc(O[C@@H]4CCCN(C5CCCCC5)C4)ccc3C2=O)C(=O)N1` (stereo partly drawn) [Example 43, 3-(5-(((R)-1-cyclohexylpiperidin-3-yl)oxy)-1-oxoisoindolin-2-yl)piperidine-2,6-dione], under setting [4], the remaining activity at 25 µM came out at 28.1%. Also, the Dmax at 25 µM under setting [5] is 71.9%. Besides, the DC50 under setting [3] amounted to 3.7 nM.
